This data set in a line: Solubility of milvexian forms in organic solvent systems. The class given is physicochemical. The method, then: While heating of the feed solution is a viable solution for production, it is a more complex set-up and with risk of crashing out dissolved solids in case of cold spots and plant safety. Various solvent systems (See Table 11 below) were investigated with primary focus on solvent systems containing DCM due to its low boiling point and excellent solubilization properties.
Based on the data it was determined that 70/30 w/w % DCM/MeOH and 80/20 w/w % were promising solvent mixtures and more accurate solubility determination was carried out for 80/20 w/w % DCM/MeOH for both FORM A and P1.Acetone solvate at 20° C. with the results shown in Table 12 below.
P1.Acetone was the preferred crystalline form of milvexian for physical stability and manufacturability reasons. Based on the above, 80/20 w/w % DCM/MeOH solvent system was selected for development due to highly increase solubility over the 90/10 w/w % Acetone/Water solvent system.

Converted amounts (≈) assume the structure as drawn. Read-outs that look alike come from different tables or passages of the source.

Regarding `C[C@@H]1CCC[C@H](n2cnc(-c3cc(Cl)ccc3-n3cc(Cl)nn3)cc2=O)c2cc(ccn2)-c2c(cnn2C(F)F)NC1=O` [FORM A], the solubility at 24 hours (70/30 DCM/MeOH, 20 °C, organic solvent or mixture, thermodynamic from solid, 70/30 DCM/MeOH, 20° C., 24 hours, read-out: Solubility in mg/mL solution 24 hours) stood at 221 mg/mL (≈ 353 mM). The “Solubility in mg/mL solution 2 weeks” value is reported as 204 mg/mL (≈ 326 mM) (70/30 DCM/MeOH, 20° C.) and 255 mg/mL (≈ 407 mM) (80/20 DCM/MeOH, 20° C.). Moreover, the “Solubility in mg/mL solution 24 hours” value (80/20 DCM/MeOH, 20° C., 24 hours) stood at 272 mg/mL (≈ 434 mM). For the same compound, the solubility is 255 mg/mL (≈ 407 mM) (80/20 w/w % DCM/MeOH, listed as crystalline Form A of milvexian free form) and above 220 mg/mL (DCM/MeOH solvent systems of Table 12, 20 °C, organic solvent or mixture, DCM/MeOH solvent systems of Table 12, read-out: solubilities achievable).

For the compound `C[C@@H]1CCC[C@H](n2cnc(-c3cc(Cl)ccc3-n3cc(Cl)nn3)cc2=O)c2cc(ccn2)-c2c(cnn2C(F)F)NC1=O`, for the setting “80/20 w/w % DCM/MeOH, 20 °C, organic solvent or mixture, 80/20 w/w % DCM/MeOH, read-out: solubility”, the solubility stood at 230 mg/mL (≈ 367 mM).
